Values of other authors in patent publication US7655257B2, “Sustained delivery of an active agent using an implantable system” (Intarcia Therapeutics, Inc., priority 1996, dated 2010).

Tests used:
[1] = test system: prostatic tumors in Noble and Dunning male rats and DMBA-induced mammary tumors in female rats
[2] = continuous administration, humans

## CCNC(=O)[C@@H]1CCCN1C(=O)[C@H](CCCNC(=N)N)NC(=O)[C@H](CC(C)C)NC(=O)[C@@H](CC(C)C)NC(=O)[C@H](Cc1ccc(O)cc1)NC(=O)[C@H](CO)NC(=O)[C@H](Cc1c[nH]c2ccccc12)NC(=O)[C@H](Cc1c[nH]cn1)NC(=O)[C@@H]1CCC(=O)N1 [Leuprolide acetate]
[1]
  growth of hormone-dependent tumors: inhibition of the growth
Gonadotropin secretion; [2]
  level of LH and FSH: decreased level of LH and FSH
  testosterone in males: reduced to castrate levels
Gonadotropin secretion; oral
  activity when given orally: not active
